For five compounds, EC50, IC50 and AC50 results are on record in ChEMBL document CHEMBL1201862, “PubChem BioAssay data set” (2004).

Assay [1] has as its target T1, G-protein coupled receptor 35 (Homo sapiens, UniProt Q9HC97). Put plainly: SAR analysis of Agonists of the GPR35 Receptor using an Image-Based Assay - Set 4. [Related pubchem assays (depositor defined):AID2013, AID2026]. It counts as functional.
The target in assay [2] is T1, G-protein coupled receptor 35. Put plainly: SAR analysis of Antagonists of the GPR35 Receptor using an Image-Based Assay - Set 6. [Related pubchem assays (depositor defined):AID2013, AID2026]. In kind it is functional.
Assay [3] concerns the target T2, Cannabinoid receptor 1 (Homo sapiens, UniProt P21554). Put plainly: SAR analysis of antagonists of the Cannabinoid Receptor 1 using an Image-Based Assay - Set 4. [Related pubchem assays (depositor defined):AID2013, AID2026]. In kind it is functional.
Assay [4] deals with G-protein coupled receptor 55 (Homo sapiens, UniProt Q9Y2T6). Put plainly: SAR Analysis of Selective Antagonists of GPR55 using an Image-Based Assay - Set 4. [Related pubchem assays (depositor defined):AID2013, AID2026]. It counts as functional.
G-protein coupled receptor 55, sequence (Q9Y2T6 whole entry): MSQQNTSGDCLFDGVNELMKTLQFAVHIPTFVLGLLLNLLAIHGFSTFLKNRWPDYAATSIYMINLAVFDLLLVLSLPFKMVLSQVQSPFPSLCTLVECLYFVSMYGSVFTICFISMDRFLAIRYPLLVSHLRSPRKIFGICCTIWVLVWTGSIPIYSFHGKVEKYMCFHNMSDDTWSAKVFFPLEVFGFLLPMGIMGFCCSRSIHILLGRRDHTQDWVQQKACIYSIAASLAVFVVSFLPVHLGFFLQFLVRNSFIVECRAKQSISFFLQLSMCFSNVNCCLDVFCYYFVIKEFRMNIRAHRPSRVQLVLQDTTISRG
The target of assay [5] is T3, Cannabinoid receptor 2 (Homo sapiens, UniProt P34972). Put plainly: SAR analysis of agonists of the Cannabinoid Receptor 2 using an Image-Based Assay - Set 3. [Related pubchem assays (depositor defined):AID2013, AID2026]. It counts as functional.
T3 sequence (P34972 whole entry): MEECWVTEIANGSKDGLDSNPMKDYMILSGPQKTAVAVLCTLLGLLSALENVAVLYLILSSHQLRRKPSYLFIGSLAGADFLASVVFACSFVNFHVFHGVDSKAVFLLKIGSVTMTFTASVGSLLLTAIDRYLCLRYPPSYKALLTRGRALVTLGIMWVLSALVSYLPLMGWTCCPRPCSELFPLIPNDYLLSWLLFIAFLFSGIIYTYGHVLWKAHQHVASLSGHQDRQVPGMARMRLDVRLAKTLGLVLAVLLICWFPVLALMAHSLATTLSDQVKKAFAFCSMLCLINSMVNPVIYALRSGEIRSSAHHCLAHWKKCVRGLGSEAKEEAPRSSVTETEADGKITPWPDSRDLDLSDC
Assay [6] deals with T2, Cannabinoid receptor 1. Put plainly: SAR analysis of agonists of the Cannabinoid Receptor 1 using an Image-Based Assay - Set 4. [Related pubchem assays (depositor defined):AID2013, AID2026]. In kind it is functional.
For assay [7], the target named is T3, Cannabinoid receptor 2. Put plainly: SAR analysis of antagonists of the Cannabinoid Receptor 2 using an Image-Based Assay - Set 3. [Related pubchem assays (depositor defined):AID2013, AID2026]. In kind it is functional.
In assay [8] the target is T4, E3 ubiquitin-protein ligase XIAP (Homo sapiens, UniProt P98170). Put plainly: Counter Screen using XIAP-Bir3 for Chemical Antagonists of Bir1/2 domains of IAP-family anti-apoptotic proteins. [Related pubchem assays (depositor defined):AID1018, AID1449, AID1514, AID1638, AID1749, AID1750, AID488957, AID488963]. A general note: Counterscreens check selectivity or assay interference.
T4 sequence (P98170 whole entry): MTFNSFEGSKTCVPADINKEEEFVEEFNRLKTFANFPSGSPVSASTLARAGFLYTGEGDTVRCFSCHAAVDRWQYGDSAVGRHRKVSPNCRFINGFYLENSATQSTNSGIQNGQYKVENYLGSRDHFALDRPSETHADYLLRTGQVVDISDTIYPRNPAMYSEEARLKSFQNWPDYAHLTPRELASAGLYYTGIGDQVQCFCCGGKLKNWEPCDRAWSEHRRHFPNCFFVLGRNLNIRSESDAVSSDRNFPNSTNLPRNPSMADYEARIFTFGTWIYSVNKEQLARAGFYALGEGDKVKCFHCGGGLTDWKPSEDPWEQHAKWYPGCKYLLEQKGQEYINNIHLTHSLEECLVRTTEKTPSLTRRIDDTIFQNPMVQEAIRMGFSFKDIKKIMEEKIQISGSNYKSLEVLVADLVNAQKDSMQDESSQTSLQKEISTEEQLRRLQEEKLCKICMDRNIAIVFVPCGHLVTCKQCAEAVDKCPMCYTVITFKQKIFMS

In assay [9] the target is T4, E3 ubiquitin-protein ligase XIAP. Put plainly: small molecules displacing peptide from XIAP – biochemical, IAP family, fluorescence polarization (AID 1018). It counts as functional. (Fluorescence polarisation rises when a labelled molecule tumbles more slowly, as on binding a larger partner.)
The next assay addresses T5, CAAX prenyl protease 2 (Saccharomyces cerevisiae S288c, UniProt Q03530).
T5 sequence (Q03530 whole entry): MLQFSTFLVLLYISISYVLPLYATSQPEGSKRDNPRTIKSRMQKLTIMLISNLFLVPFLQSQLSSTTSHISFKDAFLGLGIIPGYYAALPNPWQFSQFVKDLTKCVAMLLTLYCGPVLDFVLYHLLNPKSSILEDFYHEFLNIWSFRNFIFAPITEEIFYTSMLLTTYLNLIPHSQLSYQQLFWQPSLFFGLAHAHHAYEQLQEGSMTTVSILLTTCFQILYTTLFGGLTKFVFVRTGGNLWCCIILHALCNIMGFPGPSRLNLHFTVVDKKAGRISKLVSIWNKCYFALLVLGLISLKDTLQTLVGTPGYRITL
It counts as biochemical.

Another assay deals with Trypsin (Sus scrofa, UniProt P00761). Put plainly: trypsin protease activity blockade – biochemical, quenched peptide fluorescence, cherry-pick, selectivity assay for Rce1 protease inhibitor project, dose response (AID 488789).
Trypsin, sequence (P00761 whole entry): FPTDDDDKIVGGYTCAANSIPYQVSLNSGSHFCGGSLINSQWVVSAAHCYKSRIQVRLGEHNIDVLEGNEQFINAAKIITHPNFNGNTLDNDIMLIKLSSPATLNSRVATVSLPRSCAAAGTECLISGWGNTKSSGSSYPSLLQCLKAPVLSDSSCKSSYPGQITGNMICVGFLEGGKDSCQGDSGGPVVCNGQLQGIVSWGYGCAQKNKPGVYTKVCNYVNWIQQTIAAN
The nature of assay [10]: toxicity toward cultured mammalian cells – cell-based, plate reader, cherry-pick samples, cytotoxicity control, dose response (AID 504397). In kind it is functional.
A short description of assay [11]: non-specific 3'UTR reporter inhibition in Clone20-Shn3RL – cell-based, Renilla luciferase, cherry-picked, counter-screen for Shn3 inhibitor project, dose response (AID 624133). It counts as functional.
Assay [12] is described as follows: Luminescence Cell-Based Dose Response HTS to Identify Inhibitors of Luciferase Translation or Activity in H4-C Neuroglioblastoma Cells. [Related pubchem assays: 1813 (Primary HTS), 1827 (Project Summary)]. It counts as functional.
Assay [13] can be described thus: Luminescence Cell-Based Dose Response HTS to Identify Activators of 5'UTR Stem-Loop Driven Prion Protein mRNA Translation in H4-C Neuroglioblastoma Cells. [Related pubchem assays: 1829 (Project Summary), 1814 (Primary HTS)]. In kind it is functional.
Assay [14] in a line: HEK-293T viability loss after treatment – luminescence, T-cell screen hits, cytotoxicity control for TCR NF-kB inhibitor project, dose response (AID 489026).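 Note: cells exposed to compound about 14 hours before the viability readout.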 In kind it is functional, cell-based.
Assay [15] in a line: Luminescence Cell-Based Dose Confirmation HTS to Identify Inhibitors of 5'UTR Stem-Loop Driven Alpha-Synuclein mRNA Translation in H4 Neuroglioblastoma Cells. [Related pubchem assays: 1827 (Project Summary), 1813 (Primary HTS)]. It counts as functional.
Assay [16] can be described thus: luciferase reporter signal suppression in cells – H4 neuroglioma cells, luminescence, dose response (AID 1990). In kind it is functional, cell-based. (Reporter assays use an easily measured gene product as a stand-in for the process of interest.)
Assay [17] in a line: alpha-synuclein stem-loop luciferase translation blockers – H4 neuroglioma cells, luminescence, confirmation (AID 1988). It counts as functional, cell-based.
Assay [18] in a line: Luminescence Cell-Based Dose HTS Response to Identify Inhibitors of 5'UTR Stem-Loop Driven Prion Protein mRNA Translation in H4-C Neuroglioblastoma Cells. [Related pubchem assays (depositor defined):AID1814, AID1827]. In kind it is functional.
The nature of assay [19]: reduction of Shn3 3'UTR-driven luciferase in osteoblasts – cell-based, Clone20 osteoblasts, firefly luciferase, cherry-picked, dose response (AID 624132).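 Note: firefly luciferase luminescence from reporter carrying the Shn3 3'UTR in osteoblasts.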 In kind it is functional.
Assay [20] can be described thus: Luminescence Cell-Based Dose Response HTS to Identify Activators of Luciferase Translation or Activity in H4-C Neuroglioblastoma Cells. [Related pubchem assays: 1829 (Project Summary), 1814 (Primary HTS)]. It counts as functional.
Assay [21] in a line: loss of viability in HepG2 cells – cell-based, CellTiter-Glo, cherry-picked, cytotoxicity control for Shn3 inhibitor project, dose response (AID 624134). It counts as functional.
Assay [22] is described as follows: Luminescence Cell-Based Dose Response HTS to Identify Inhibitors of 5'UTR Stem-Loop Driven Prion Protein mRNA Translation in H4 Neuroglioblastoma Cells. [Related pubchem assays: 1827 (Project Summary), 1813 (Primary HTS)]. In kind it is functional.
Assay [23] is described as follows: Luminescence Cell-Based Dose Retest to Confirm Activators of 5'UTR Stem-Loop Driven Alpha-Synuclein mRNA Translation in H4 Neuroglioblastoma Cells. [Related pubchem assays (depositor defined):AID1813, AID1829]. It counts as functional.
Assay [24] has as its target Sphingosine 1-phosphate receptor 3 (Homo sapiens, UniProt Q99500). Put plainly: Late-stage fluorescence-based dose-response cell-based assay to identify agonists of the Sphingosine 1-Phosphate Receptor 4 (S1P4): Sphingosine 1-Phosphate Receptor 3 (S1P3) counterscreen assay. [Related pubchem assays (depositor defined):AID1509, AID1523, AID1563, AID1686, AID1701, AID1801, AID463107, AID463225, AID504400]. It counts as functional.

Assay [25] deals with Sphingosine 1-phosphate receptor 2 (Homo sapiens, UniProt O95136). Put plainly: Late-stage fluorescence-based dose-response cell-based assay to identify agonists of the Sphingosine 1-Phosphate Receptor 4 (S1P4): Sphingosine 1-Phosphate Receptor 2 (S1P2) counterscreen assay. [Related pubchem assays (depositor defined):AID1509, AID1523, AID1563, AID1686, AID1701, AID1801, AID463107, AID463225, AID504400]. In kind it is functional.
Sphingosine 1-phosphate receptor 2, sequence (O95136 whole entry): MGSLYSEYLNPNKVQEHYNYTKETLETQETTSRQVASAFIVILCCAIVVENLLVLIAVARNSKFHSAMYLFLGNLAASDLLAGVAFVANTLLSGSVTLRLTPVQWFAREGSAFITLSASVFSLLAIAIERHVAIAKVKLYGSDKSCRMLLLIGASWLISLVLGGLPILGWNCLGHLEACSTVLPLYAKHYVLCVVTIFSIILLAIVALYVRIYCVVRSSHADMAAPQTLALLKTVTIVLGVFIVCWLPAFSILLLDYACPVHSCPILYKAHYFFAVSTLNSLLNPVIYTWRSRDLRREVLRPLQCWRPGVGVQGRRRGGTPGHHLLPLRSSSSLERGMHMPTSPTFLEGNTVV

Assay [26] has as its target Sphingosine 1-phosphate receptor 1 (Homo sapiens, UniProt P21453). Put plainly: Late-stage fluorescence-based dose-response cell-based assay to identify agonists of the Sphingosine 1-Phosphate Receptor 4 (S1P4): Sphingosine 1-Phosphate Receptor 1 (S1P1) counterscreen assay. [Related pubchem assays (depositor defined):AID1509, AID1523, AID1563, AID1686, AID1701, AID1801, AID463107, AID463225, AID504400]. It counts as functional.

In assay [27] the target is Sphingosine 1-phosphate receptor 5 (Homo sapiens, UniProt Q9H228). Put plainly: Late-stage fluorescence-based dose-response cell-based assay to identify agonists of the Sphingosine 1-Phosphate Receptor 4 (S1P4): Sphingosine 1-Phosphate Receptor 5 (S1P5) counterscreen assay. [Related pubchem assays (depositor defined):AID1509, AID1523, AID1563, AID1686, AID1701, AID1801, AID463107, AID463225, AID504400]. It counts as functional.
Sphingosine 1-phosphate receptor 5, sequence (Q9H228 whole entry): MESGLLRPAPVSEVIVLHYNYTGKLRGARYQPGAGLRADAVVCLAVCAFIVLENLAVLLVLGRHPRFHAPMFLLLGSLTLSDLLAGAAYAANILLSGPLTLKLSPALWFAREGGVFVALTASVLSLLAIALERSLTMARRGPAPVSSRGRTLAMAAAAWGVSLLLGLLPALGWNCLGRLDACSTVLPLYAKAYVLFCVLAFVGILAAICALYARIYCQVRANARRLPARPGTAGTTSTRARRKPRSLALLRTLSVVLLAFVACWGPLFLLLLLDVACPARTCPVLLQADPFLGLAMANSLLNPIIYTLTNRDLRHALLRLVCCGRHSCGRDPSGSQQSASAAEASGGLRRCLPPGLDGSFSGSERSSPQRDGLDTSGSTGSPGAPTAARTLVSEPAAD

Activity calls are given as the source filed them. A value given as a limit tells only on which side of the number the result lay.

T1 sequence (Q9HC97 whole entry): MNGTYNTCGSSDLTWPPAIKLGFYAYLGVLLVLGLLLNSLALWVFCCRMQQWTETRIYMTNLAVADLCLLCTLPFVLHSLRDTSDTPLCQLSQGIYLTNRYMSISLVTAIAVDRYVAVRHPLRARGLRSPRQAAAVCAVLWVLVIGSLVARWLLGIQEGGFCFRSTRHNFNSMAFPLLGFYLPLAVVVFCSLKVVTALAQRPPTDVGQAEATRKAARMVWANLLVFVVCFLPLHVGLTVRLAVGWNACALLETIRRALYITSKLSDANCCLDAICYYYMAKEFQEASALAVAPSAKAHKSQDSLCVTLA
T2 sequence (P21554 whole entry): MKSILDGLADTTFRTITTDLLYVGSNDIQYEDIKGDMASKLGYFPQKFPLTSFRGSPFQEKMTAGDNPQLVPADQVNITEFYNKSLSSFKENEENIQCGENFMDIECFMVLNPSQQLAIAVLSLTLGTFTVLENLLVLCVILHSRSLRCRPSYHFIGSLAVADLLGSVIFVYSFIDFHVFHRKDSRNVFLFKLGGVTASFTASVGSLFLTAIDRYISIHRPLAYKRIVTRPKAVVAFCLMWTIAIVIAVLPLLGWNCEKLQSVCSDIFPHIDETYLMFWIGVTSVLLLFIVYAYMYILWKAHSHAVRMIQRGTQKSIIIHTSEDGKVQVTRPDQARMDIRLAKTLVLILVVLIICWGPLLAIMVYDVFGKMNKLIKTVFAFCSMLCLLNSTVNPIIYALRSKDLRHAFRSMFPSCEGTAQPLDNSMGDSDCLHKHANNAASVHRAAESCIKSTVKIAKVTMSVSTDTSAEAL
Sphingosine 1-phosphate receptor 1, sequence (P21453 whole entry): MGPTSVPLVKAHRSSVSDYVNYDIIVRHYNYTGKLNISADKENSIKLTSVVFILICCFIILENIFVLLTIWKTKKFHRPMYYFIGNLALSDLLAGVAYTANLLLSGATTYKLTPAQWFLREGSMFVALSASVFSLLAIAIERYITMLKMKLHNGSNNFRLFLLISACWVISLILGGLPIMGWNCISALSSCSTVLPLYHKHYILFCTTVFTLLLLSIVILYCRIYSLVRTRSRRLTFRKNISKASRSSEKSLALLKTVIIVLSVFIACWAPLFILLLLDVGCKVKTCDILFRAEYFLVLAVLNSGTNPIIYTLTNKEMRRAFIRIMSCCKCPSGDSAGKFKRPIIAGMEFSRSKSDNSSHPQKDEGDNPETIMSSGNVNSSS
Sphingosine 1-phosphate receptor 3, sequence (Q99500 whole entry): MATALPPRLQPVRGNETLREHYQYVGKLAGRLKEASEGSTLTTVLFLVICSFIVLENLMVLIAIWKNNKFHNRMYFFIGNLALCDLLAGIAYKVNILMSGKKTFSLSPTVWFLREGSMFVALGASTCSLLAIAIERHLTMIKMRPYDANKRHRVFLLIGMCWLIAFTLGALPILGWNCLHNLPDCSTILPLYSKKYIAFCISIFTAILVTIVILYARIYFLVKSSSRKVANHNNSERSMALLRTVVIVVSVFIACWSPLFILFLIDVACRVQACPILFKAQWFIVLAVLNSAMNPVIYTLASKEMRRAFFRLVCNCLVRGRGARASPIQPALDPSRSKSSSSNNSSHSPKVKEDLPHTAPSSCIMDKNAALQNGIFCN

For orientation: EC50 means the concentration that produces a half-maximal response. For orientation: IC50 means the concentration that inhibits the measured activity by half. Take `N=c1c(C(=O)NC2CCCCC2)cc2c(=O)n3ccccc3nc2n1C1CCCC1`: the EC50 (in assay [1]; on Cannabinoid receptor 2 [5]; on Cannabinoid receptor 1 [6]) was > 32 µM (inactive) each time. The IC50 was > 32 µM (inactive) in assay [2], > 32 µM (inactive) at Cannabinoid receptor 1 [3], 29 µM (inactive) in [4] and > 32 µM (inactive) at Cannabinoid receptor 2 [7].

With `CSc1nc(N)nc(SCC(=O)Nc2cccc(F)c2)c1C#N`, the IC50 is > 100 µM (inactive) in assay [8] and > 100 µM (not active) in assay [9].

The term AC50 denotes the concentration at which the activity in the assay is half-maximal. In the case of `COc1cccc(C2CC(c3ccc(Br)cc3)=NN2C(=O)c2ccncc2)c1OC` (centres undefined), the results for the AC50 (at CAAX prenyl protease 2; on Trypsin; in [10]) were 3.7 µM (active), 48.7 µM (active) and 45.2 µM (active), respectively.

`CCCOc1ccccc1C1CC(=O)Nc2cc3c(cc21)OCO3` (centres undefined): the AC50 in assay [11] was 15.3 µM (active); in assay [19], 5.72 µM (active); in assay [21] it was > 70 µM (inactive). For the same compound, the EC50 in assay [12] is 2.97 µM (active); in assay [13], 2.4 µM (inconclusive); in assay [15] it was 35.8 µM (active); in assay [16], 3.65 µM (inconclusive); in assay [17] it was 0.158 µM (active); in [18] it was 2.4 µM (active). The EC50 is 2.97 µM (inconclusive) in [20], > 120 µM (not active) in assay [22] and 35.8 µM (inconclusive) in [23]. In addition, in assay [14], the IC50 was 60.1 µM (inactive).

In the case of `Cc1ccc(OCCOc2c(Cl)cc(Cl)cc2Cl)c([N+](=O)[O-])n1`, the EC50 in assay [24], in assay [25], in assay [26] and in assay [27] was > 50 µM (inactive) in each case.
